Results reported in patent US11104671B2, “Insecticidal compounds” (SYNGENTA PARTICIPATIONS AG, priority 2017, dated 2021).

Assays:
Type in all cases: in vivo
Thrips tabaci = Thrips tabaci (onion thrips), feeding/contact activity; details: foliar, 144 h, application rate 200 ppm, 6 days after infestation, sunflower leaf discs, mixed ages, read-out: mortality
Protocol: Thrips tabaci (Onion thrips) Feeding/Contact Activity
(§1) Sunflower leaf discs were placed on agar in 24-well microtiter plates and sprayed with aqueous test solutions prepared from 10,000 ppm DMSO stock solutions. After drying the leaf discs were infested with a thrips population of mixed ages. The samples were assessed for mortality 6 days after infestation.

Tetranychus urticae = Tetranychus urticae (two-spotted spider mite), feeding/contact activity; details: foliar, 192 h, application rate 200 ppm, 8 days after infestation, bean leaf discs, read-out: mortality on mixed population (mobile stages)
Protocol: Tetranychus urticae (Two-Spotted Spider Mite): Feeding/Contact Activity
as §1, with “Bean” for “Sunflower”, “discs” for “discs were placed”, “were” for “and”, “mite” for “thrips”, “on mixed population (mobile stages) 8” for “6”

Diabrotica balteata = Diabrotica balteata (corn root worm), maize sprouts sprayed, L2 larvae; details: 96 h, application rate 200 ppm, 4 days after infestation, L2 larvae, read-out: effect in at least one of the two categories (mortality or growth inhibition)
Protocol: Diabrotica Balteata (Corn Root Worm)
Maize sprouts placed onto an agar layer in 24-well microtiter plates were treated with aqueous test solutions prepared from 10,000 ppm DMSO stock solutions by spraying. After drying, the plates were infested with L2 larvae (6 to 10 per well). The samples were assessed for mortality and growth inhibition in comparison to untreated samples 4 days after infestation.

Plutella xylostella = Plutella xylostella (diamond back moth), artificial diet, L2 larvae; details: 120 h, application rate 200 ppm, 5 days after infestation, L2 larvae, read-out: effect in at least one of the two categories (mortality or growth inhibition)
Protocol: Plutella xylostella (Diamond Back Moth)
24-well microtiter plates with artificial diet were treated with aqueous test solutions prepared from 10,000 ppm DMSO stock solutions by pipetting. After drying, the plates were infested with L2 larvae (10 to 15 per well). The samples were assessed for mortality and growth inhibition in comparison to untreated samples 5 days after infestation.

Myzus persicae [1] = assay: Myzus persicae (green peach aphid), intrinsic activity; details: 120 h, test rate 12 ppm, 5 days after infestation, sucrose solution, infested pea seedlings, read-out: mortality
Source text: Myzus persicae (Green Peach Aphid). Intrinsic Activity
Test compounds prepared from 10,000 ppm DMSO stock solutions were applied by pipette into 24-well microtiter plates and mixed with sucrose solution. The plates were closed with a stretched Parafilm. A plastic stencil with 24 holes was placed onto the plate and infested pea seedlings were placed directly on the Parafilm. The infested plate was closed with a gel blotting paper and another plastic stencil and then turned upside down. The samples were assessed for mortality 5 days after infestation.

Euschistus heros = Euschistus heros (neotropical brown stink bug), soybean leaves sprayed, N2 nymphs; details: 120 h, application rate 200 ppm, 5 days after infestation, N2 nymphs, read-out: effect in at least one of the two categories (mortality or growth inhibition)
Protocol: Euschistus heros (Neotropical Brown Stink Bug)
Soybean leaves on agar in 24-well microtiter plates were sprayed with aqueous test solutions prepared from 10,000 ppm DMSO stock solutions. After drying the leaves were infested with N2 nymphs. The samples were assessed for mortality and growth inhibition in comparison to untreated samples 5 days after infestation.

Spodoptera littoralis = Spodoptera littoralis (Egyptian cotton leaf worm), cotton leaf discs, L1 larvae; details: foliar, 72 h, application rate 200 ppm, 3 days after infestation, L1 larvae, read-out: control (mortality, anti-feedant effect or growth inhibition)
Protocol: Spodoptera littoralis (Egyptian Cotton Leaf Worm)
Cotton leaf discs were placed onto agar in 24-well microtiter plates and sprayed with aqueous test solutions prepared from 10,000 ppm DMSO stock solutions. After drying the leaf discs were infested with five L1 larvae. The samples were assessed for mortality, anti-feeding effect, and growth inhibition in comparison to untreated samples 3 days after infestation. Control of Spodoptera littoralis by a test sample is given when at least one of the categories mortality, anti-feedant effect, and growth inhibition is higher than the untreated sample.

Myzus persicae [2] = assay: Myzus persicae (green peach aphid), feeding/contact activity; details: foliar, 144 h, application rate 200 ppm, 6 days after infestation, sunflower leaf discs, mixed ages, read-out: mortality
Protocol: Myzus persicae (Green Peach Aphid): Feeding/Contact Activity
Sunflower leaf discs were placed onto agar in a 24-well microtiter plate and sprayed with aqueous test solutions prepared from 10,000 ppm DMSO stock solutions. After drying, the leaf discs were infested with an aphid population of mixed ages. The samples were assessed for mortality 6 days after infestation.

Cc1cc(C2=NCC(c3cc(Cl)cc(Cl)c3)(C(F)(F)F)C2)ccc1C(=O)NC1CON(S(C)(=O)=O)C1 (stereo not drawn) [Compound A5, 4-[3-(3,5-dichlorophenyl)-3-(trifluoromethyl)-2,4-dihydropyrrol-5-yl]-2-methyl-N-(2-methylsulfonylisoxazolidin-4-yl)benzamide]
≥ 80%: mortality at 200 ppm (Thrips tabaci) | mortality at 200 ppm (Tetranychus urticae) | percent effect (mortality or growth inhibition) at 200 ppm (Diabrotica balteata) | percent effect (mortality or growth inhibition) at 200 ppm (Plutella xylostella) | mortality at 12 ppm (Myzus persicae [1]) | percent effect (mortality or growth inhibition) at 200 ppm (Euschistus heros) | percent control (mortality, anti-feedant effect or growth inhibition) at 200 ppm (Spodoptera littoralis) | mortality at 200 ppm (Myzus persicae [2])

Cc1cc(C2=NCC(c3cc(Cl)c(F)c(Cl)c3)(C(F)(F)F)C2)ccc1C(=O)NC1CON(S(C)(=O)=O)C1 (stereo not drawn) [Compound A7, 4-[3-(3,5-dichloro-4-fluoro-phenyl)-3-(trifluoromethyl)-2,4-dihydropyrrol-5-yl]-2-methyl-N-(2-methylsulfonylisoxazolidin-4-yl)benzamide]
≥ 80%: mortality at 200 ppm (Thrips tabaci) | mortality at 200 ppm (Tetranychus urticae) | percent effect (mortality or growth inhibition) at 200 ppm (Diabrotica balteata) | percent effect (mortality or growth inhibition) at 200 ppm (Plutella xylostella) | mortality at 12 ppm (Myzus persicae [1]) | percent effect (mortality or growth inhibition) at 200 ppm (Euschistus heros) | percent control (mortality, anti-feedant effect or growth inhibition) at 200 ppm (Spodoptera littoralis) | mortality at 200 ppm (Myzus persicae [2])

Cc1cc(C2=NCC(c3cc(Cl)c(Cl)c(Cl)c3)(C(F)(F)F)C2)ccc1C(=O)NC1CON(S(C)(=O)=O)C1 (stereo not drawn) [Compound A8, 2-methyl-N-(2-methylsulfonylisoxazolidin-4-yl)-4-[3-(3,4,5-trichlorophenyl)-3-(trifluoromethyl)-2,4-dihydropyrrol-5-yl]benzamide]
≥ 80%: mortality at 200 ppm (Thrips tabaci) | mortality at 200 ppm (Tetranychus urticae) | percent effect (mortality or growth inhibition) at 200 ppm (Diabrotica balteata) | percent effect (mortality or growth inhibition) at 200 ppm (Plutella xylostella) | mortality at 12 ppm (Myzus persicae [1]) | percent effect (mortality or growth inhibition) at 200 ppm (Euschistus heros) | percent control (mortality, anti-feedant effect or growth inhibition) at 200 ppm (Spodoptera littoralis) | mortality at 200 ppm (Myzus persicae [2])
